# Experimental data as given in patent US4324728A, “Compound nanaomycin A and derivatives thereof and a process for producing the same” (The Kitasato Institute, priority 1976, dated 1982).
# What was measured:
# Escherichia coli NIHJ = assay: Minimal inhibitory concentration (agar); assay type: cell-based; details: 48 h, nutrient agar, pH 7.0, 2 days, 37° C.
# [1] = tested on: Staphylococcus aureus FDA 209P; assay: Minimal inhibitory concentration (agar); assay type: cell-based; details: FDA209P, 48 h, nutrient agar, pH 7.0, 2 days, 37° C.
# [2] = tested on: Klebsiella pneumoniae PCI 602; assay: Minimal inhibitory concentration (agar); assay type: cell-based; details: PCI602, 48 h, nutrient agar, pH 7.0, 2 days, 37° C.
# Saccharomyces sake = assay: Minimal inhibitory concentration (agar); assay type: cell-based; details: Saccharomyces, 96 h; potato agar, pH 6.4, 4 days, 27° C.; read-out: MIC
# Aspergillus niger = assay: Minimal inhibitory concentration (agar); assay type: cell-based; details: Aspergillus niger, 96 h; potato agar, pH 6.4, 4 days, 27° C.; read-out: MIC
# Description: (§1) Minimal inhibitory concentration was assayed by agar dilution method
# (§2) (potato agar, pH 6.4, 27° C., 4 days).
# (§3) P potato agar (pH 6.4, 4 days, 27° C.)
# Candida albicans = assay: Minimal inhibitory concentration (agar); assay type: cell-based; details: Candida albicans, 96 h, pH 6.4, potato agar, pH 6.4, 4 days, 27° C.; read-out: MIC
# Description: as §3
# (§4) MIC Minimal inhibitory concentration
# as §1, §2
# Sclerotinia cinerea = assay: Minimal inhibitory concentration (agar); assay type: cell-based; details: 96 h, potato agar, pH 6.4, 4 days, 27° C.
# Description: | P potato agar (pH 6.4, 4 days, 27° C.)
# Salmonella typhimurium = assay: Minimal inhibitory concentration (agar); assay type: cell-based; details: Salmonella enterica, 48 h, nutrient agar, pH 7.0, 2 days, 37° C.
# [3] = tested on: Trichophyton interdigitale; assay: Minimal inhibitory concentration (agar); assay type: cell-based; details: Trichophyton interdigitale, 96 h; potato agar, pH 6.4, 4 days, 27° C.; read-out: MIC
# [4] = tested on: mycoplasma, Gram-positive bacteria and tricophyton; assay: Antimicrobial activity (in words); assay type: cell-based
# Mycoplasma pneumoniae = assay: Minimal inhibitory concentration (PPLO agar); assay type: cell-based; details: 192 h, Eiken PPLO agar, pH 7.8, 8 days, 37° C.
# fungi = assay: Antifungal activity (in words); assay type: cell-based
# Gram-positive bacteria = assay: Antibacterial activity (in words); assay type: cell-based
# Mycoplasma gallinarum = assay: Minimal inhibitory concentration (PPLO agar); assay type: cell-based; details: Mycoplasmopsis gallinarum, 192 h, Eiken PPLO agar, pH 7.8, 8 days, 37° C.
# Description: (§5) H Hokken PPLO agar (pH 7.8, 8 days, 37° C.)
# as §4
# (§6) E Eiken PPLO agar (pH 7.8, 8 days, 37° C.)
# Mycoplasma iners = assay: Minimal inhibitory concentration (PPLO agar); assay type: cell-based; details: Mycoplasmopsis iners, 192 h; Eiken PPLO agar, pH 7.8, 8 days, 37° C.
# Description: as §5, §4, §6
# [5] = tested on: parasite of the genus Tricophyton; assay: Therapeutic effect on infectious diseases in guinea pigs and cattle; assay type: in vivo
# Description: When dermatomycosis of cattle caused by mass infection of Trichophyton verrucosum is treated with nanaomycin A, nanaomycin A is dissolved or suspended in a suitable carrier, for example, olive oil, and is coated on the affected part directly with or without removal of the scales. […] The results obtained by once-coating of nanaomycin A and by twice-coating (the second coating is carried out a week after the first coating) are shown in Tables 2 and 3, respectively.
# [6] = tested on: Mycobacterium smegmatis ATCC 607; assay: Minimal inhibitory concentration (agar); assay type: cell-based; details: Mycolicibacterium smegmatis, ATCC607, 48 h; nutrient agar, pH 7.0, 2 days, 37° C.
# [7] = tested on: Mycoplasma gallisepticum 333P (Spiramycin resistant); assay: Minimal inhibitory concentration (PPLO agar); assay type: cell-based; details: Mycoplasmoides gallisepticum, 192 h, pH 7.8
# Description: as §5, §6, §4
# [8] = tested on: Mycoplasma gallisepticum KP-13; assay: Minimal inhibitory concentration (PPLO agar); assay type: cell-based; details: Mycoplasmoides gallisepticum, KP13, 192 h; Eiken PPLO agar, pH 7.8, 8 days, 37° C.; read-out: MIC
# Description: as §5, §6, §4
# [9] = tested on: Mycoplasma gallisepticum S-6; assay: Minimal inhibitory concentration (PPLO agar); assay type: cell-based; details: Mycoplasmoides gallisepticum, S6, 192 h; Eiken PPLO agar, pH 7.8, 8 days, 37° C.; read-out: MIC
# Description: as §5, §6, §4
# Shigella flexneri = assay: Minimal inhibitory concentration (agar); assay type: cell-based; details: 48 h, nutrient agar, pH 7.0, 2 days, 37° C.
# Description: (§7) Medium N nutrient agar (pH 7.0, 2 days, 37° C.)
# as §4
# (§8) N nutrient agar (pH 7.0, 2 days, 37° C.)
# Sarcina lutea PCI 1001 = assay: Minimal inhibitory concentration (agar); assay type: cell-based; details: Micrococcus luteus, PCI1001, 48 h, pH 7, nutrient agar, pH 7.0, 2 days, 37° C.; read-out: MIC
# Description: as §7, §4, §8
# [10] = tested on: Staphylococcus aureus FDA 209P (JC-1); assay: Minimal inhibitory concentration (agar); assay type: cell-based; details: FDA209P, 48 h, nutrient agar, pH 7.0, 2 days, 37° C.
# Description: as §7, §4, §8
# [11] = tested on: Escherichia coli NIHJ (JC-2); assay: Minimal inhibitory concentration (agar); assay type: cell-based; details: 48 h, pH 7, nutrient agar, pH 7.0, 2 days, 37° C.
# Description: as §7, §4, §8
# Pseudomonas aeruginosa = assay: Minimal inhibitory concentration (agar); assay type: cell-based; details: 48 h, nutrient agar, pH 7.0, 2 days, 37° C.
# Description: as §7, §4, §8
# [12] = tested on: Bacillus subtilis PCI 219; assay: Minimal inhibitory concentration (agar); assay type: cell-based; details: Bacillus subtilis, PCI219, 48 h, pH 7, nutrient agar, pH 7.0, 2 days, 37° C.; read-out: MIC
# Description: as §7, §4, §8
# mycoplasmas = assay: Antimycoplasma activity (in words); assay type: cell-based
# Solubility = assay type: physicochemical
compound,measurement,setting,value
"CC1OC(CC(N)=O)CC2=C1C(=O)c1c(O)cccc1C2=O (stereo not drawn) [Nanaomycin C, nanaomycin C]",MIC,Escherichia coli NIHJ,100 µg/mL
same,MIC,[1],6.3 µg/mL
same,MIC,[2],> 100 µg/mL
same,MIC,Saccharomyces sake,> 100 µg/mL
same,MIC,Aspergillus niger,> 100 µg/mL
same,MIC,Candida albicans,> 100 µg/mL
same,MIC,Sclerotinia cinerea,100 µg/mL
same,MIC,Salmonella typhimurium,> 100 µg/mL
same,MIC,[3],100 µg/mL
same,antimicrobial activity,[4],inhibits mainly Gram-positive bacteria and mycoplasmas
same,MIC,Mycoplasma pneumoniae,6.3 µg/mL
same,activity against fungi,fungi,a weaker activity against fungi and mycoplasmas than nanaomycin A
same,activity against Gram-positive bacteria,Gram-positive bacteria,as strong activity against Gram-positive bacteria as nanaomycin A
same,MIC,Mycoplasma gallinarum,12.5 µg/mL
same,MIC,Mycoplasma iners,50 µg/mL
same,therapeutic effect on Trichophyton infectious diseases,[5],poor therapeutic effect
same,MIC,[6],50 µg/mL
same,MIC,[7],3.1 µg/mL
same,MIC,[8],12.5 µg/mL
same,MIC,[9],6.3 µg/mL
same,MIC,Shigella flexneri,> 100 µg/mL
same,MIC,Sarcina lutea PCI 1001,25 µg/mL
same,MIC,[10],3.1 µg/mL
same,MIC,[11],> 100 µg/mL
same,MIC,Pseudomonas aeruginosa,> 100 µg/mL
same,MIC,[12],6.3 µg/mL
same,activity against mycoplasma(s),mycoplasmas,a weaker activity against fungi and mycoplasmas than nanaomycin A
same,"Solubility in methanol, ethanol, ethylacetate, chloroform and acetone","Solubility; methanol, ethanol, ethylacetate, chloroform, acetone",Soluble
same,Solubility in n-hexane and petroleum ether,"Solubility; n-hexane, petroleum ether",Insoluble
same,Solubility in water,Solubility; water,Insoluble
